Earlier results as cited in patent publication US7320970B2, “Low dose estrogen interrupted hormone replacement therapy” (Duramed Pharmaceutials, Inc., priority 1999, dated 2008).

Assays:
[1] = target: T1, human sex-hormone-binding globulin (SHBG) (Homo sapiens, UniProt P04278)
T1 sequence (P04278 30-402): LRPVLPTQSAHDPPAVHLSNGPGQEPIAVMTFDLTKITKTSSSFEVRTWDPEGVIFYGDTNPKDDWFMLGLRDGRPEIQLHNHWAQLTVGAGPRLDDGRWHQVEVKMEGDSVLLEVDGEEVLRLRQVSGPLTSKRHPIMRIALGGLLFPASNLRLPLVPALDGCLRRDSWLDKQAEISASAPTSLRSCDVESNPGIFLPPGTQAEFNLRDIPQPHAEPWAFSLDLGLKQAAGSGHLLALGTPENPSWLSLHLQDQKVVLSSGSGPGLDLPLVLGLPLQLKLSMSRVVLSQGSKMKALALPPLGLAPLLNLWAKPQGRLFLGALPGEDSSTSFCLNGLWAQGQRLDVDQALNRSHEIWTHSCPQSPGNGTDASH

CC(=O)O[C@]1(C(C)=O)CC[C@H]2[C@@H]3C=C(C)C4=CC(=O)CC[C@]4(C)[C@H]3CC[C@@]21C [megestrol acetate]
decrease in the frequency of hot flushes (hot flushes; dose of 20 to 80 mg/day, versus 21 percent with placebo): 85%

C#C[C@]1(OC(C)=O)CC[C@H]2[C@@H]3CCC4=CC(=O)CC[C@@H]4[C@H]3CC[C@@]21C [norethindrone acetate]
effectiveness against hot flushes (hot flushes; 10 mg daily): effective

C#C[C@]1(OC(C)=O)CC[C@H]2[C@@H]3CCC4=C/C(=N/O)CC[C@@H]4[C@H]3CC[C@@]21CC [norgestimate, D-17β-acetoxy-B-ethyl-17α ethinyl-gon-4-en-3-one oxime]
binding to progestin receptors (progestin receptors): binds to progestin receptors | affinity for SHBG [1]: lack of affinity for SHBG
